Data on 13 molecules can be found in ChEMBL document CHEMBL1909046, “DrugMatrix in vitro pharmacology data”.

Test [1] in a line: DRUGMATRIX: Purinergic P2X radioligand binding (ligand: [3H] alpha, beta-Methylene-ATP). It counts as cell membranes, Oryctolagus cuniculus, New Zealand albino, Urinary bladder, Membrane. The following applies: Not Active = under 50% inhibition at 10 µM.
Test [2] has as its target 5-hydroxytryptamine receptor 2B (Homo sapiens, UniProt P41595). It counts as cell membranes, CHO-K1, Membrane. Conditions: cho-k1. Also: in other assays of this panel Not Active means under 50% inhibition at 10 µM.
In the next test the target is T1, Progesterone receptor (Bos taurus, UniProt Q690N0).
T1 sequence (Q690N0 whole entry): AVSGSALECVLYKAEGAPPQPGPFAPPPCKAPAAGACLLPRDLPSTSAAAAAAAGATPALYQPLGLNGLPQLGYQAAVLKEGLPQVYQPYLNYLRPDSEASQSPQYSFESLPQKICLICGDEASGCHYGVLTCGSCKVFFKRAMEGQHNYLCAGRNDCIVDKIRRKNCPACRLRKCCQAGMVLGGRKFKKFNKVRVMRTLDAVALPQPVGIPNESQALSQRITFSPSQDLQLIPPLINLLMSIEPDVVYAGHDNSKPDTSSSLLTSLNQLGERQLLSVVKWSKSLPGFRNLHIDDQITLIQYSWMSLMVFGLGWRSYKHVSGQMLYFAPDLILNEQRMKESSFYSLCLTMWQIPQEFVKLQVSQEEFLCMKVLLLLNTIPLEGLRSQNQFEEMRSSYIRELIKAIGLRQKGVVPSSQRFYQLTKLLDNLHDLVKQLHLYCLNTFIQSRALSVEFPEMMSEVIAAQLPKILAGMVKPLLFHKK
In words: DRUGMATRIX: Progesterone radioligand binding (ligand: [3H] R-5020). It counts as tissue-based, Uterus. Conditions: Not Active = under 50% inhibition at 10 µM.

Test [3] concerns the target Protein kinase C alpha type (Homo sapiens, UniProt P17252). It counts as cell-based. Conditions: sf9.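 Also: inhibition of PKCalpha kinase activity measured in an enzyme assay with histone as the phosphorylation substrate; in other assays of this panel Not Active means under 50% inhibition at 10 µM.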
Test [4] in a line: DRUGMATRIX: Calcium Channel Type L, Phenylalkylamine radioligand binding (ligand: [3H] (-)-Desmethoxyverapamil (D-888)). It counts as cell membranes, Rattus norvegicus, Wistar, Brain, Membrane. Conditions: Not Active = under 50% inhibition at 10 µM.
In test [5] the target is T2, Neuropeptide Y receptor type 2 (Homo sapiens, UniProt P49146). Also: in other assays of this panel Not Active means under 50% inhibition at 10 µM.
T2 sequence (P49146 whole entry): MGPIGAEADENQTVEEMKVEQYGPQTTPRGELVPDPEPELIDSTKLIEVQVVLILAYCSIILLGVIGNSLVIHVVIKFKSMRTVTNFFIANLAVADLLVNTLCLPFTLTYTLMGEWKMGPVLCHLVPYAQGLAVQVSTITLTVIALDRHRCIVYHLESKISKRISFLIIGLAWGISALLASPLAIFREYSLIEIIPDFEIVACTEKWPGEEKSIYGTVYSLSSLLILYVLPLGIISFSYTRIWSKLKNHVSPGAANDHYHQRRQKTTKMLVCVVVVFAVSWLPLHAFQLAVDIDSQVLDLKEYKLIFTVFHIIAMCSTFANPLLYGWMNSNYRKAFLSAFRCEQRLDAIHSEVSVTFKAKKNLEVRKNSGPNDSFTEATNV
It counts as cell membranes, Membrane. Conditions: kan-ts.

For the next test, the target named is Estrogen receptor beta (Homo sapiens, UniProt Q92731). The following applies: sf9. Also: in other assays of this panel Not Active means under 50% inhibition at 10 µM.
Sequence of Estrogen receptor beta (Q92731 whole entry): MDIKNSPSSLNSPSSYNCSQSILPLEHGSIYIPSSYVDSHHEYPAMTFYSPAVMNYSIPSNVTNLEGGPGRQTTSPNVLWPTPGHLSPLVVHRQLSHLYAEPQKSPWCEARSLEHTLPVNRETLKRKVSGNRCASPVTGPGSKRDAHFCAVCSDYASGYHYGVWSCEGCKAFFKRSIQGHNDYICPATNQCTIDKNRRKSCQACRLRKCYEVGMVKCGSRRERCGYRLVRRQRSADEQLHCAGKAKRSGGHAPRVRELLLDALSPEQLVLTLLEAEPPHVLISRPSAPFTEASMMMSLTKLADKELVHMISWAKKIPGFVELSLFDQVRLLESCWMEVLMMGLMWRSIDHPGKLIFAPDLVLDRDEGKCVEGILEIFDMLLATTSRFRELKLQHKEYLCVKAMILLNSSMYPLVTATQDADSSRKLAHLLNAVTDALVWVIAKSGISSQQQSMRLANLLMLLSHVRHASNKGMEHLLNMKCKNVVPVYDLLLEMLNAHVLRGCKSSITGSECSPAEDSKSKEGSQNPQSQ

Sequence of 5-hydroxytryptamine receptor 2B (P41595 whole entry): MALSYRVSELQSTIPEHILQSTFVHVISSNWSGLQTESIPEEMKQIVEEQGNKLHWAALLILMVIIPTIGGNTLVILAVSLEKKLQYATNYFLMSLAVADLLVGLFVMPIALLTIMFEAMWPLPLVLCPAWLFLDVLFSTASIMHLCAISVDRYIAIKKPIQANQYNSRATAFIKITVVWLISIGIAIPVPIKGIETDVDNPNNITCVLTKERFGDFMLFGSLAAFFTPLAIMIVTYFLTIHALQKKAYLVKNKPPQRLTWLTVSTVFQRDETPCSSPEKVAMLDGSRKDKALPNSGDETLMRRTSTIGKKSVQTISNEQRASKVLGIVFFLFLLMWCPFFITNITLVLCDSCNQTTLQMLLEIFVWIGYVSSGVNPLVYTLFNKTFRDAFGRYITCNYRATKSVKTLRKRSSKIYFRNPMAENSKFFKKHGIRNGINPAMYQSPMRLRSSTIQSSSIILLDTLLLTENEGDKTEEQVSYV

With `C[C@]12CC[C@H]3[C@@H](CCC4=CC(=O)CC[C@@H]43)[C@@H]1CC[C@@H]2O` [NANDROLONE], the IC50 entry is “Not Active” in test [1]; “Not Active” in test [2]; 172 nM on Progesterone receptor (read-out: IC50); “Not Active” in test [3]; “Not Active” in test [4]; “Not Active” in test [5]. Besides, the IC50 entry against Estrogen receptor beta is reported as “Not Active”. Moreover, the results for the Ki entry (in test [1]; at Progesterone receptor (read-out: Ki); in test [4]) were “Not Active”, 22.4 nM and “Not Active”, respectively.
For the molecule `C[C@@H]1C/C=C/C=C/C=C/C=C/[C@H](O[C@@H]2O[C@H](C)[C@@H](O)[C@H](N)[C@@H]2O)C[C@@H]2O[C@](O)(C[C@@H](O)C[C@H]3O[C@@H]3/C=C/C(=O)O1)C[C@H](O)[C@H]2C(=O)O` [NATAMYCIN], the IC50 result (in test [1]; in test [2]; on Progesterone receptor; in test [3]; in test [4]; in test [5]) was “Not Active” each time. Also, at Estrogen receptor beta, the IC50 result is on record as “Not Active”. Moreover, the Ki result in test [1] and in test [4] was “Not Active” throughout.
Take `NC(=O)c1cccnc1` [NIACINAMIDE]: the IC50 result (in test [1]; in test [2]; on Progesterone receptor; in test [3]; in test [4]; in test [5]) was “Not Active” throughout. Besides, the IC50 entry against Estrogen receptor beta was “Not Active”. The Ki result in test [1] and in test [4] was “Not Active” in each case.
Turning to `CS(=O)(=O)Nc1ccc([N+](=O)[O-])cc1Oc1ccccc1` [NIMESULIDE], the IC50 entry (in test [1]; in test [2]; on Progesterone receptor; in test [3]; in test [4]; in test [5]) was “Not Active” throughout. Also, the IC50 result against Estrogen receptor beta is reported as “Not Active”. Moreover, the Ki result in test [1] and in test [4] was “Not Active” in each case.
In the case of `C[C@@H]1O[C@@H](O[C@H]2C[C@@H](O)[C@]3(CO)[C@H]4[C@H](O)C[C@]5(C)[C@@H](C6=CC(=O)OC6)CC[C@]5(O)[C@@H]4CC[C@]3(O)C2)[C@H](O)[C@H](O)[C@H]1O` [OUABAIN], the IC50 entry (in test [1]; in test [2]; on Progesterone receptor; in test [3]; in test [4]; in test [5]) was “Not Active” in each case. Also, the IC50 result on Estrogen receptor beta was “Not Active”. The Ki result in test [1] and in test [4] was “Not Active” each time.
Turning to `NC(=O)N1c2ccccc2CC(=O)c2ccccc21` [OXCARBAZEPINE], the IC50 entry (in test [1]; in test [2]; at Progesterone receptor; in test [3]; in test [4]; in test [5]) was “Not Active” in each case. Moreover, the half-maximal inhibitory concentration (IC50) result against Estrogen receptor beta is “Not Active”. Besides, the Ki entry in test [1] and in test [4] was “Not Active” throughout.
Consider `COc1ccnc(C[S+]([O-])c2nc3ccc(OC(F)F)cc3[nH]2)c1OC` (stereo not drawn) [PANTOPRAZOLE], for which the IC50 entry (in test [1]; in test [2]; at Progesterone receptor; in test [3]; in test [4]; in test [5]) was “Not Active” throughout. The IC50 entry against Estrogen receptor beta is on record as “Not Active”. Moreover, the Ki entry in test [1] and in test [4] was “Not Active” in each case.
Turning to `CCc1ccc(CCOc2ccc(CC3SC(=O)NC3=O)cc2)nc1` (stereo not drawn) [PIOGLITAZONE], the IC50 entry (in test [1]; in test [2]; on Progesterone receptor; in test [3]; in test [4]; in test [5]) was “Not Active” each time. Further, on Estrogen receptor beta, the IC50 result is given as “Not Active”. In addition, the Ki result in test [1] and in test [4] was “Not Active” throughout.
For the molecule `CCN(CC)CCNC(=O)c1ccc(N)cc1` [PROCAINAMIDE], the IC50 entry (in test [1]; in test [2]; at Progesterone receptor; in test [3]; in test [4]; in test [5]) was “Not Active” throughout. In addition, the IC50 entry against Estrogen receptor beta was “Not Active”. The Ki result in test [1] and in test [4] was “Not Active” each time.
Take `CCN(CC)CCCC(C)Nc1c2ccc(Cl)cc2nc2ccc(OC)cc12` (stereo not drawn) [QUINACRINE]: the IC50 entry in test [1] was “Not Active”; in test [2], “Not Active”; at Progesterone receptor, “Not Active”; in test [3], “Not Active”; in test [4] (read-out: IC50), 739 nM; in test [5], “Not Active”. The IC50 result on Estrogen receptor beta is reported as “Not Active”. The values for the Ki entry in test [1] and in test [4] (read-out: Ki) were “Not Active” and 719 nM, respectively.
In the case of `CC[C@]1(O)C[C@@H]2CN(CCc3c([nH]c4ccccc34)[C@@](C(=O)OC)(c3cc4c(cc3OC)N(C)[C@H]3[C@@](O)(C(N)=O)[C@H](O)[C@]5(CC)C=CCN6CC[C@]43[C@@H]65)C2)C1` [VINDESINE], the IC50 result (in test [1]; in test [2]; at Progesterone receptor; in test [3]; in test [4]; in test [5]) was “Not Active” throughout. The IC50 result against Estrogen receptor beta is given as “Not Active”. Further, the Ki result in test [1] and in test [4] was “Not Active” throughout.
For COBALTOUS CHLORIDE, the IC50 entry (in test [1]; in test [2]; at Progesterone receptor; in test [3]; in test [4]; in test [5]) was “Not Active” throughout. Further, the IC50 entry against Estrogen receptor beta is recorded as “Not Active”. In addition, the Ki entry (in test [1]; in test [2]; on Progesterone receptor; in test [3]; in test [4]; in test [5]) was “Not Active” in each case. Moreover, the Ki entry on Estrogen receptor beta is on record as “Not Active”.
COLISTIN: the IC50 entry (in test [1]; in test [2]; at Progesterone receptor; in test [3]; in test [4]; in test [5]) was “Not Active” each time. Further, the IC50 result at Estrogen receptor beta was “Not Active”. For the same molecule, the Ki result (in test [1]; in test [2]; on Progesterone receptor; in test [3]; in test [4]; in test [5]) was “Not Active” in each case. For the same molecule, the Ki entry at Estrogen receptor beta is listed as “Not Active”.

A word on the IC50: it is the concentration that gives 50% inhibition. The Ki is the equilibrium dissociation constant of an inhibitor or competing ligand from its target.
